Molecular target: wild type PAN ΔLoop protein (Influenza A virus, UniProt C3W5S0, DEL51-57/DEL61-72/E59G)
Format: biochemical, influenza A/California/04/2009 H1N1
Details: read-out: FRET IC50

Work on `O=C(O)C(=O)CC(=O)c1ccccc1` [DPBA, reference compound] yielded an IC50 of 98 ± 3 nM.

Source: PMC5719402, “Protein-Structure Assisted Optimization of 4,5-Dihydroxypyrimidine-6-Carboxamide Inhibitors of Influenza Virus Endonuclease” (Scientific Reports, 2017)
